Assay [1] has as its system Amaranthus retroflexus. As to the kind of experiment: Post-emergence herbicidal activity against Amaranthus retroflexus assessed as growth inhibition at 1.5 ai kg/ha under green house conditions. The assay is classed as functional.
Assay [2] has as its system Amaranthus retroflexus. Kind of assay: Pre-emergence herbicidal activity against Amaranthus retroflexus assessed as growth inhibition at 1.5 ai kg/ha under green house conditions. The assay is classed as functional.
Assay [3] relates to Brassica napus. As to the kind of experiment: Post-emergence herbicidal activity against Brassica napus (oilseed rape) assessed as growth inhibition at 1.5 ai kg/ha under green house conditions. The assay is classed as functional.
The test system of assay [4] is Brassica napus. As to the kind of experiment: Pre-emergence herbicidal activity against Brassica napus (oilseed rape) assessed as growth inhibition at 1.5 ai kg/ha under green house conditions. The assay is classed as functional.
Assay [5] concerns Digitaria sanguinalis. Kind of assay: Post-emergence herbicidal activity against Digitaria sanguinalis (hairy crabgrass) assessed as growth inhibition at 1.5 ai kg/ha under green house conditions. The assay is classed as functional.
Assay [6] concerns Digitaria sanguinalis. As to the kind of experiment: Pre-emergence herbicidal activity against Digitaria sanguinalis (hairy crabgrass) assessed as growth inhibition at 1.5 ai kg/ha under green house conditions. The assay is classed as functional.
In assay [7] the test system is Echinochloa crus-galli. Kind of assay: Post-emergence herbicidal activity against Echinochloa crus-galli (barnyard grass) assessed as growth inhibition at 1.5 ai kg/ha under green house conditions. The assay is classed as functional.
For assay [8], the system named is Echinochloa crus-galli. Kind of assay: Pre-emergence herbicidal activity against Echinochloa crus-galli (barnyard grass) assessed as growth inhibition at 1.5 ai kg/ha under green house conditions. The assay is classed as functional.
In assay [9] the test system is Medicago sativa. As to the kind of experiment: Post-emergence herbicidal activity against Medicago sativa (alfalfa) assessed as growth inhibition at 1.5 ai kg/ha under green house conditions. The assay is classed as functional.
For assay [10], the system named is Medicago sativa. Kind of assay: Pre-emergence herbicidal activity against Medicago sativa (alfalfa) assessed as growth inhibition at 1.5 ai kg/ha under green house conditions. The assay is classed as functional.
Assay [11] has as its system Cucumis sativus. As to the kind of experiment: Pre-emergence growth inhibition of Cucumis sativus (cucumber) under green house conditions. The assay is classed as functional, organism-based.

For `O=C(COc1ccc(Cl)cc1Cl)OC(c1ccccc1Cl)P(=O)(O)O` (stereo unspecified), the “growth inhibition (GI)” value in assay [1] came out at 23%; in assay [2], 23%; in [3], 49%; in assay [4] it was 67%; in [5] it was 13%; in assay [6] it was 23%. Further, the “growth inhibition (GI)” value in assay [7] is 20.5%; in assay [8], 10%.

For the compound `COP(=O)(OC)C(C)OC(=O)COc1ccccc1` (stereo unspecified), the “growth inhibition (GI)” value in assay [9] is 9.4%; in [10] it was 27.2%; in [1], 5%; in assay [2] it was 0%; in assay [3] it was 21%; in assay [4] it was 7.1%. Also, the “growth inhibition (GI)” value came out at 0% in assay [5], 0% in [6], 12% in [7] and 0% in assay [8]. In assay [11], the IC50 came out at 89.1 µg/g.

`COP(=O)(OC)C(OC(=O)COc1cccc(C(F)(F)F)c1)c1ccccc1Cl` (stereo unspecified): the “growth inhibition (GI)” value in assay [9] is 100%; in assay [10], 100%; in [1], 100%; in [2] it was 100%; in assay [3], 54.6%; in assay [4], 61%. The “growth inhibition (GI)” value in assay [5] turned out to be 36%; in [6], 97.9%; in assay [7] it was 23.5%; in assay [8], 54%. This compound had an IC50 in [11] of 3.57 µg/g.

Consider `COP(=O)(OC)C(OC(=O)COc1ccc([N+](=O)[O-])cc1)c1ccccc1` (stereo unspecified), for which the “growth inhibition (GI)” value is reported as 5.49% in assay [3]; -2.78% in [4]; -5.2% in assay [5]; 0% in assay [6]; 0% in [7]; 0.8% in assay [8]. For the same compound, the IC50 in [11] is 223 µg/g.

Consider `CCOP(=O)(OCC)C(OC(=O)COc1cccc(C(F)(F)F)c1)c1ccc2c(c1)OCO2` (stereo unspecified), for which the “growth inhibition (GI)” value amounted to 100% in assay [9]; 93.2% in assay [10]; 88.5% in assay [1]; 95.5% in [2]; 61.7% in [3]; 12.6% in [4]. Besides, the “growth inhibition (GI)” value in assay [5] stood at 24%; in assay [6] it was 100%; in assay [7], 0%; in [8], 80.4%. The IC50 in assay [11] is 5.91 µg/g.

As for `COP(=O)([O-])COC(=O)COc1ccc(Cl)cc1Cl.[Na+]`, the “growth inhibition (GI)” value in assay [9] is 92.5%; in [10], 100%; in assay [1], 100%; in assay [2] it was 96.6%; in assay [3], 97.7%; in assay [4], 96.6%. Also, the “growth inhibition (GI)” value is 28.6% in [5], 90.3% in assay [6], 28% in [7] and 84.6% in assay [8]. Also, in assay [11], the IC50 was 0.31 µg/g.

For `COP(=O)(OC)C(OC(=O)COc1cccc(C(F)(F)F)c1)c1ccc2c(c1)OCO2` (stereo unspecified), the “growth inhibition (GI)” value in [9] was 100%; in [10], 100%; in [1], 88.5%; in assay [2], 100%; in assay [3], 43.3%; in assay [4], 64.6%. Further, the “growth inhibition (GI)” value in assay [5] is given as 12%; in assay [6], 93.2%; in [7] it was 15.3%; in assay [8] it was 70.6%. The same compound displayed an IC50 in [11] of 4.87 µg/g.

With `COP(=O)(OC)C(C)OC(=O)COc1cc(F)cc(F)c1` (stereo unspecified), the “growth inhibition (GI)” value amounted to 0% in assay [9]; 10.4% in assay [10]; 14.9% in assay [1]; 0% in assay [2]; 0% in assay [3]; 0% in assay [4]. For the same compound, the “growth inhibition (GI)” value in assay [5] was 27.2%; in [6] it was 0%; in assay [7], 3.8%; in assay [8] it was 0%. In [11], the IC50 is 93.5 µg/g.

For the compound `CCOP(=O)(OCC)C(OC(=O)COc1cccc(C(F)(F)F)c1)c1ccc(Cl)cc1` (stereo unspecified), the “growth inhibition (GI)” value in [9] is recorded as 100%; in assay [10], 100%; in [1], 86.3%; in assay [2] it was 86.4%; in assay [3], 45.4%; in assay [4] it was 13.8%. For the same compound, the “growth inhibition (GI)” value was determined as 16% in [5], 95.7% in [6], 5.6% in assay [7] and 76.5% in assay [8]. The compound also showed an IC50 in assay [11] of 4.32 µg/g.

Consider `O=C(O)COc1ccc(Cl)cc1Cl` [2,4-DICHLOROPHENOXYACETIC ACID], for which the “growth inhibition (GI)” value worked out at 95.5% in assay [9]; 90% in assay [10]; 100% in [1]; 95.5% in [2]; 89.13% in assay [3]; 100% in [4]. The “growth inhibition (GI)” value in assay [5] is given as 59.6%; in assay [6] it was 88.7%; in assay [7], 54.5%; in assay [8], 80%. This compound showed an IC50 in assay [11] of 0.1379 µg/g.

On to `COP(=O)(OC)C(C)OC(=O)COc1cccc(Cl)c1Cl` (stereo unspecified), for which the “growth inhibition (GI)” value in assay [9] is listed as 0%; in assay [10] it was 8.3%; in [1] it was 43.8%; in assay [2], 16.7%; in [3] it was 23.3%; in [4] it was 0%. Besides, the “growth inhibition (GI)” value in assay [5] stood at 35.5%; in assay [6] it was 0%; in [7], 13.6%; in assay [8], 19.1%. For the same compound, in [11], the IC50 worked out at 74.11 µg/g.

On to `CCCC(OC(=O)COc1ccc(Cl)cc1Cl)P(=O)([O-])OC.[K+]` (stereo unspecified), for which the “growth inhibition (GI)” value in [9] came to 91.2%; in assay [10], 10.2%; in assay [1], 38.5%; in assay [2], 18.6%; in assay [3] it was 42.6%; in assay [4], 37%. Moreover, the “growth inhibition (GI)” value was determined as 38.9% in assay [5], 35.2% in assay [6], 33.8% in [7] and 32.1% in assay [8]. Also, the IC50 in assay [11] stood at 4.21 µg/g.

For the compound `CCOP(=O)(OCC)C(C)OC(=O)COc1ccc(C)cc1` (stereo unspecified), the “growth inhibition (GI)” value in [1] was found to be 0%; in assay [3], 30.9%; in assay [4], 62.17%; in assay [5], 0%; in assay [6], 0%; in assay [7], 47.4%.

Regarding `COP(=O)(OC)C(C)OC(=O)COc1ccc(F)cc1F` (stereo unspecified), the “growth inhibition (GI)” value in assay [9] is 49.4%; in assay [10], 52.1%; in assay [1], 77.5%; in assay [2], 38.9%; in [3], 61%; in assay [4], 39.3%. Besides, the “growth inhibition (GI)” value is listed as 48.5% in assay [5], 73.6% in assay [6], 20.2% in assay [7] and 36% in [8]. The IC50 in assay [11] is 0.59 µg/g.

Turning to `COP(=O)(OC)C(C)OC(=O)COc1ccc(Cl)cc1Cl` (stereo unspecified) [CLACYFOS], the “growth inhibition (GI)” value is reported as 100% in assay [9]; 98% in assay [10]; 100% in assay [1]; 100% in assay [2]; 100% in assay [3]; 99.5% in [4]. Also, the “growth inhibition (GI)” value in [5] is given as 55%; in assay [6], 70%; in [7], 50%; in assay [8], 70%.

On to `COP(=O)(OC)C(C)OC(=O)COc1cccc(C(F)(F)F)c1` (stereo unspecified), for which the “growth inhibition (GI)” value in assay [9] stood at 100%; in assay [10], 63.8%; in assay [1], 27.3%; in assay [2], 43.4%; in [3], 92.6%; in assay [4] it was 56.1%. Further, the “growth inhibition (GI)” value is 39.1% in assay [5], 73.1% in [6], 12.3% in assay [7] and 57.3% in assay [8].

As for `COP(=O)(OC)C(OC(=O)COc1ccc(Cl)cc1Cl)c1ccccc1Cl` (stereo unspecified), the “growth inhibition (GI)” value was found to be 100% in assay [1]; 100% in assay [2]; 100% in assay [3]; 100% in assay [4]; 68.75% in assay [5]; 50% in [6]. In addition, the “growth inhibition (GI)” value was 50% in assay [7] and 70% in assay [8]. The compound further yielded an IC50 in assay [11] of 0.048 µg/g.

The values are drawn from ChEMBL document CHEMBL3044810, “Synthesis and herbicidal activity of alkyl 1-(3-trifluoromethylphenoxyacetoxy)-1-substituted methylphosphonates” (J Pestic Sci, 2007).
